Reference: PMC12857369 (Kidney International Reports, 2025)

Target: T1, chymase (Homo sapiens, UniProt P23946)
T1 construct: gene CMA1; recombinant human chymase
T1 sequence (P23946 22-247): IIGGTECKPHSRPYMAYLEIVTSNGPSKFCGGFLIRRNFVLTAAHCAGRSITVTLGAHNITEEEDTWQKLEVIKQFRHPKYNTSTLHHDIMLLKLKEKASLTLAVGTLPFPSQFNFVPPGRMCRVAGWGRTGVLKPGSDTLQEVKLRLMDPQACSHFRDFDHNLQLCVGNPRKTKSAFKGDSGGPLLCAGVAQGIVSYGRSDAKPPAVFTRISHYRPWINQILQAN
Assay: Ang I to Ang II conversion by recombinant human chymase, LC-MS/MS dose response
Assay type: biochemical

For `CC(C)C[C@H](NC(=O)[C@@H](NC(=O)N[C@@H](Cc1ccccc1)C(=O)O)[C@@H]1CCN=C(N)N1)C(=O)N[C@H](C=O)Cc1ccccc1` [chymostatin], the IC50 was 60 nM.
